Experimental data from PMC7217150, “Synthesis, Modification, and Biological Evaluation of a Library of Novel Water‐Soluble Thiopyridone‐Based Organometallic Complexes and Their Unexpected (Biological) Behavior” (Chemistry (Weinheim an Der Bergstrasse, Germany), 2020).
Where two headings read alike, the source gives them in different places.

Legend:
[1] = pH 7.2
Description: Stock solutions containing the desired complex in DMSO (5 mM) were diluted with phosphate buffer (pH 7.2) to a final concentration of […] compound in 1 % DMSO/20 mM buffer and directly analyzed by four different isocratic UHPLC runs (Δ=5 %). The lipophilicity parameters logkw and lipophilicity indices φ0 were calculated according to literature.7, 37

[2] = system: A549; assay: MTT cytotoxicity assay, monolayer culture; format: cell-based, human; details: exposure time 96 h, means ± SDs
From the text: (§1) A549 (non‐small cell lung carcinoma), SW480 and HCT‐116 (both colon carcinoma) were kindly provided by Brigitte Marian, Institute of Cancer Research, Department of Medicine I, Medical University of Vienna, Austria. The cell line CH1/PA‐1 (ovarian teratocarcinoma) was kindly provided by Lloyd R. Kelland (CRC Centre for Cancer Therapeutics, Institute of Cancer Research, Sutton, UK). All cell culture media (including supplements) and reagents were obtained from Sigma–Aldrich, and all plasticware from StarLab, unless indicated otherwise.

[3] = system: SW480; assay: MTT cytotoxicity assay, monolayer culture; format: cell-based, human
From the text: as §1

[4] = system: CH1/PA‐1; assay: MTT cytotoxicity assay, monolayer culture; format: cell-based, human; details: CH1/PA‐1, MTT assay, exposure time 96 h, means ± SDs
From the text: as §1

[5] = system: SW480 cells; details: for Cellular accumulation: ICP‐MS, 2 h exposure, 50 μM
[6] = system: A549; details: A549 multicellular spheroids, 96 h drug exposure
Description: (§2) A549, CH1/PA‐1 and SW480 cells were grown in MEM supplemented with 10 % fetal calf serum (FCS; from Biowest), 1 mM sodium pyruvate, 4 mM L‐glutamine and 1 % v/v nonessential amino acids (from 100×solution) and L‐glutamine. HCT‐116 cells were maintained in McCoy's 5a medium supplemented with 10 % FCS and L‐glutamine. Adherent monolayer cultures were grown in 75 cm^2 flasks. For spheroid culture, A549, CH1/PA‐1 and HCT‐116 cells were harvested from culture flasks by trypsinization, resuspended in their respective supplemented medium and seeded in ultra‐low attachment round‐bottom 96‐well plates (Corning Costar) at a density of 500 viable cells per well. Plates were incubated for 96 h to allow spheroid formation prior to use for the tests. All cultures were incubated in a humidified incubator at 37 °C with 5 % CO2.
(§3) Cytotoxicity in multicellular spheroids was determined by the fluorimetric resazurin assay. […] After incubation for 96 h, 20 μL of a 440 μM resazurin sodium salt solution in PBS were added to each well, and the plates were incubated for further 16 h. Fluorescence was measured with a Synergy HT reader (BioTek) with an excitation wavelength of 530 nm and emission wavelength of 590 nm. For both assays, at least three independent experiments (or two in case of poor activity) were performed, each with triplicates per concentration level, and the 50 % inhibitory concentrations (IC50) relative to untreated controls were interpolated from concentration‐effect curves.

[7] = system: HCT‐116; details: HCT‐116 multicellular spheroids, 96 h drug exposure
Description: as §2, §3

[8] = system: CH1/PA‐1; details: CH1/PA‐1 multicellular spheroids, 96 h drug exposure
Description: as §2, §3

[9] = system: SW480; assay: Cell cycle distribution, flow cytometry with propidium iodide; format: cell-based, human; details: for Cell cycle distribution G1, % / Cell cycle distribution G2/M, % / Cell cycle distribution S, %: 24 h, mean ± SD; for Relative change in cell cycle distribution G1, % / Relative change in cell cycle distribution G2/M, % / Relative change in cell cycle distribution S, %: difference to untreated control
Description: (§4) The influence of two ligands, as well as seven complexes on cell cycle distribution was tested in two of the cancer cell lines (SW480, CH1/PA‐1) by means of flow cytometry. The cell cycle distribution (G1, S, G2/M phase in %; Table S37) was investigated upon DNA staining with propidium iodide.
(§5) CH1/PA‐1 and SW480 cells were harvested by trypsinization, 8×10^4 and 1.2×10^5 cells per well were seeded into 12‐well plates, respectively. The cells were allowed to attach and resume proliferation for 24 h after the seeding. […] After continuous exposure for 24 h at 37 °C and under 5 % CO2, the cells were harvested by trypsinization and centrifuged at 300 g for 3 min. The cells were washed with PBS (1 mL) and resuspended in propidium iodine (PI) containing HSF buffer (600 μL; 0.1 % Triton X‐100, 0.1 % sodium citrate, 50 μg mL^−1 PI in PBS). After incubation overnight at 4 °C in the dark, 5×10^3 cells were measured by flow cytometry with a Millipore Guava easyCyte 8HT instrument (Luminex, USA). Data were evaluated by means of FlowJo software (Tree Star) using Watson Pragmatic algorithms.60 The fitting of the curve was chosen to keep the root mean square error between 1.0 and 2.0, alongside with good fitting visual model.

[10] = system: CH1/PA‐1; assay: as above; format: cell-based, human; details: for Cell cycle distribution G1, % / Cell cycle distribution G2/M, % / Cell cycle distribution S, %: 24 h, mean ± SD; for Relative change in cell cycle distribution G1, % / Relative change in cell cycle distribution G2/M, % / Relative change in cell cycle distribution S, %: difference to untreated control
Description: as §4, §5

[11] = SW480, MTT assay, exposure time 96 h, means ± SDs

## Cc1c([O-])c(=S)ccn1C.Cc1ccc(C(C)C)cc1.[Cl-].[Ru+2] [Compound 3 a, Chlorido[1,2‐dimethyl‐3‐oxo‐κO‐pyridine‐4(1H)‐thionato‐κS](η^6‐p‐cymene)‐ruthenium(II)]
[1]
  φ0 (chromatographic lipophilicity index): 5.51
[2]
  IC50: > 200 µM
[3]; [11]
  IC50: 55 ± 18 µM
[3]; SW480, as listed in Table 3
  IC50: 54.6 ± 18.4 µM
[4]
  IC50: > 200 µM
[5]
  Cellular accumulation: 21±5 fg/cell
[6]
  IC50: > 400 µM
[7]
  IC50: > 400 µM
[8]
  IC50: 267 ± 14 µM

## CC1=C2[O][Ir+]([Cl])[S]=C2C=CN1C.Cc1c(C)c(C)[c-](C)c1C [Compound 6 a, Chlorido[1,2‐dimethyl‐3‐oxo‐κO‐pyridine‐4(1H)‐thionato‐κS](η^5‐1,2,3,4,5‐pentamethylcyclopentadienyl)iridium(III)]
[1]
  φ0 (chromatographic lipophilicity index): 5.75
[9]; SW480, 2.5 µM
  Cell cycle distribution G1, %: 48 ± 2%
  Cell cycle distribution G2/M, %: 19 ± 3%
  Cell cycle distribution S, %: 32 ± 1%
  Relative change in cell cycle distribution G1, %: 0%
  Relative change in cell cycle distribution G2/M, %: 0%
  Relative change in cell cycle distribution S, %: -1%
[9]; SW480, 5 µM
  Cell cycle distribution G1, %: 41 ± 4%
  Cell cycle distribution G2/M, %: 26 ± 5%
  Cell cycle distribution S, %: 33 ± 9%
  Relative change in cell cycle distribution G1, %: -7%
  Relative change in cell cycle distribution G2/M, %: 7%
  Relative change in cell cycle distribution S, %: 0%
[9]; SW480, 10 µM
  Cell cycle distribution G1, %: 42 ± 4%
  Cell cycle distribution G2/M, %: 17 ± 3%
  Cell cycle distribution S, %: 42 ± 3%
  Relative change in cell cycle distribution G1, %: -6%
  Relative change in cell cycle distribution G2/M, %: -2%
  Relative change in cell cycle distribution S, %: 9%
[10]; CH1/PA-1, 10 µM
  Cell cycle distribution G1, %: 29 ± 3%
  Cell cycle distribution G2/M, %: 26 ± 4%
  Cell cycle distribution S, %: 45 ± 8%
  Relative change in cell cycle distribution G1, %: -11%
  Relative change in cell cycle distribution G2/M, %: 2%
  Relative change in cell cycle distribution S, %: 9%
[10]; CH1/PA-1, 20 µM
  Cell cycle distribution G1, %: 33 ± 4%
  Cell cycle distribution G2/M, %: 26 ± 9%
  Cell cycle distribution S, %: 41 ± 10%
  Relative change in cell cycle distribution G1, %: -7%
  Relative change in cell cycle distribution G2/M, %: 2%
  Relative change in cell cycle distribution S, %: 5%
[10]; CH1/PA-1, 40 µM
  Cell cycle distribution G1, %: 28 ± 6%
  Cell cycle distribution G2/M, %: 26 ± 4%
  Cell cycle distribution S, %: 45 ± 5%
  Relative change in cell cycle distribution G1, %: -12%
  Relative change in cell cycle distribution G2/M, %: 2%
  Relative change in cell cycle distribution S, %: 9%
[2]
  IC50: 63 ± 6 µM
[3]; [11]
  IC50: 4.2 ± 0.2 µM
[3]; SW480, as listed in Table 3
  IC50: 4.18 ± 0.19 µM
[4]
  IC50: 7 ± 1.6 µM
[5]
  cellular concentration relative to 3 a: about 47 times
  Cellular accumulation: 986±152 fg/cell
[6]
  IC50: 270 ± 17 µM
[7]
  IC50: 138 ± 6 µM
[8]
  IC50: 131 ± 14 µM
